Source: US10023579B2, “Pyrrolopyrimidine compounds, use as inhibitors of the kinase LRRK2, and methods for preparation thereof” (Southern Research Institute, priority 2015, dated 2018)
“And” between values parts separate entries of the source, which are not always exact repeats. Equal entries are not always repeated.

Key:
[1] = target: T1, WT-LRRK2 (recombinant GST-LRRK2 delta970) (Homo sapiens, UniProt Q5S007); assay: LRRK2 kinase assay, wild type (32P radiometric, peptide substrate); format: biochemical; details: WT-LRRK2 30 nM, ATP ~92 μM (Km), 30 min at 30° C.
T1 construct: Recombinant GST-LRRK2 (delta970); GST (N); host or cells: baculovirus-infected Sf9 insect cells
T1 sequence (Q5S007 970-2527 limits assumed): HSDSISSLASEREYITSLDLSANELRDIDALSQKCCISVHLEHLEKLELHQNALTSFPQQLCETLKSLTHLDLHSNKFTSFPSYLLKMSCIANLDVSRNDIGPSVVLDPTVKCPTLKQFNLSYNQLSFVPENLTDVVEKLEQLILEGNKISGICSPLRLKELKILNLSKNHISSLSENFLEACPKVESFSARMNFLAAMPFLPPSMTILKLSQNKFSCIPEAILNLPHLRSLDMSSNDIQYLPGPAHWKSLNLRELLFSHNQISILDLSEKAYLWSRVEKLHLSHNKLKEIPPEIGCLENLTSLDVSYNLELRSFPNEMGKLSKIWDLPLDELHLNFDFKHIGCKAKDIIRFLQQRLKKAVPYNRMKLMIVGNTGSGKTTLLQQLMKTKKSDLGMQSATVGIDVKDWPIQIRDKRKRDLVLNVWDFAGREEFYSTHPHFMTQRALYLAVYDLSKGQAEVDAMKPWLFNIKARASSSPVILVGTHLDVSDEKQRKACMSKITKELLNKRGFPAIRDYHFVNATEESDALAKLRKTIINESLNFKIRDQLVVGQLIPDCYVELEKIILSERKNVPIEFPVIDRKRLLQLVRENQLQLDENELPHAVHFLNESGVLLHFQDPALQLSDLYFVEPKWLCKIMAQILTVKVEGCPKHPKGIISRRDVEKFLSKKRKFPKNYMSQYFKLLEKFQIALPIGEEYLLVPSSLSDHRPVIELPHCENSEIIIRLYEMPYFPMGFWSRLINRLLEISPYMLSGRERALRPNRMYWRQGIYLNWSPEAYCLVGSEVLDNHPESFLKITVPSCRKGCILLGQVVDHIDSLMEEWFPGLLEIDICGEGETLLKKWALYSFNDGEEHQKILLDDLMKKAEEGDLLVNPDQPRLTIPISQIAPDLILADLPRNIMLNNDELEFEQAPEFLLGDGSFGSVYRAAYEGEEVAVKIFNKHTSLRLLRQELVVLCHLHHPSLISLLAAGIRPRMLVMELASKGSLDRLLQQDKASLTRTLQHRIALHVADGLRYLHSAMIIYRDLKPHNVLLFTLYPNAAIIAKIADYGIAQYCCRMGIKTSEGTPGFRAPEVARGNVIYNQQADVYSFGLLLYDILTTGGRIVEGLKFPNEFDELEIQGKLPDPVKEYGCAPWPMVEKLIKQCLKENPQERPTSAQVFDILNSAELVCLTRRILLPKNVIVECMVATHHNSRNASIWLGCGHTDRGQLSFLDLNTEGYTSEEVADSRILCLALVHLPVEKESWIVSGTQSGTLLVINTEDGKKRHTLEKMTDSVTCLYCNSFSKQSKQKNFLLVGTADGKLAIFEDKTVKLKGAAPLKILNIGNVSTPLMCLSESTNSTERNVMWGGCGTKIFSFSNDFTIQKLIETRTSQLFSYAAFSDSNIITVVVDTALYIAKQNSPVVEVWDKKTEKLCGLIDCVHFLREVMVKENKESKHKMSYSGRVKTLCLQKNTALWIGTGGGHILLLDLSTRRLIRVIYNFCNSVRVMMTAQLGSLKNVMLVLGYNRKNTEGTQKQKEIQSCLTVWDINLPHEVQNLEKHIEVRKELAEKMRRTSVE
Method: (§1) Compounds were assessed for inhibition of LRRK2 inhibition using the following procedure. Recombinant GST-LRRK2 (delta970) purified from baculovirus infected insect cells (SF9), at least 90% pure and either wild-type sequence or bearing the pathogenic G2019S mutation, was combined into a kinase buffer at 30 nM concentration. Kinase buffer consists of 50 mM Tris HCl pH 7.4, 1 mM EDTA, and 50 μM peptide substrate (amino acid sequence […]). Experimental compounds or control (no compound) were added at desired concentrations in DMSO and water, where final concentration of DMSO in kinase reactions was 0.1% for all drug concentrations. […] Reactions were incubated at 1400 RPM at 30° C. for 30 min. and then spotted in triplicate directly onto a slot-blot apparatus fitted with phospho-cellulose paper and allowed to dry. Each slot was then washed with 10 mM phosphoric acid buffer until beta-radiation could not be detected in eluted wash buffer, usually ˜1 mL per slot. Paper within each slot were excised and radiation measured by liquid scintillation.

[2] = target: T2, G2019S-LRRK2 (recombinant GST-LRRK2 delta970) (Homo sapiens, UniProt Q5S007, G2019S); assay: LRRK2 kinase assay, G2019S mutant (32P radiometric, peptide substrate); format: biochemical; details: G2019S-LRRK2 30 nM, ATP ~52 μM (Km), 30 min at 30° C.
T2 construct: Recombinant GST-LRRK2 (delta970); GST (N); host or cells: baculovirus-infected Sf9 insect cells
T2 sequence (Q5S007 970-2527 G2019S limits assumed): as the sequence (Q5S007 970-2527 limits assumed) above, with G1050S counted along it
Method: as §1

Compound	IC50 [1]	IC50 [2]
Cn1cc(Nc2nc(NC3CCC3)c3cc[nH]c3n2)cn1 [Compound 7, N4-cyclobutyl-N2-(1-methyl-1H-pyrazol-4-yl)-7H-pyrrolo[2,3-d]pyrimidine-2,4-diamine]	0.008 µM	0.019 µM
CC(C)n1cc(Nc2nc(NC3CCC3)c3cc[nH]c3n2)cn1 [Compound 8, N4-cyclobutyl-N2-(1-isopropyl-1H-pyrazol-4-yl)-7H-pyrrolo[2,3-d]pyrimidine-2,4-diamine]	0.005 µM	0.009 µM
C[C@H](Nc1nc(Nc2cnn(C)c2)nc2[nH]cnc12)C1CC1 [Compound 9, (S)-N6-(1-cyclopropylethyl)-N2-(1-methyl-1H-pyrazol-4-yl)-9H-purine-2,6-diamine]	0.038 µM	0.1 µM
Cc1cc(Nc2nc(N[C@@H](C)C3CC3)c3nc[nH]c3n2)n[nH]1 [Compound 10, (S)-N6-(1-cyclopropylethyl)-N2-(5-methyl-1H-pyrazol-3-yl)-9H-purine-2,6-diamine]	0.019 µM	0.048 µM
CC(C)n1cc(Nc2nc(N[C@@H](C)C3CC3)c3nc[nH]c3n2)cn1 [Compound 12, (S)-N6-(1-cyclopropylethyl)-N2-(1-isopropyl-1H-pyrazol-4-yl)-9H-purine-2,6-diamine]	0.01 µM	0.022 µM
CC(C)n1cc(Nc2nc(NC3CCC3)c3nc[nH]c3n2)cn1 [Compound 13, N6-cyclobutyl-N2-(1-isopropyl-1H-pyrazol-4-yl)-9H-purine-2,6-diamine]	0.007 µM	0.015 µM
Cc1c(Nc2nc(N[C@H]3CCc4ccccc43)c3cc[nH]c3n2)cnn1C(C)C(=O)N1CCN(C)CC1 (stereo partly drawn) [Compound 18, 2-(4-((4-(((S)-2,3-dihydro-1H-inden-1-yl)amino)-7H-pyrrolo[2,3-d]pyrimidin-2-yl)amino)-5-methyl-1H-pyrazol-1-yl)-1-(4-methylpiperazin-1-yl)propan-1-one]	0.037 µM	0.049 µM
CC(C)n1cc(Nc2nc(N[C@@H](C)c3ccccc3)c3cc[nH]c3n2)cn1 [Compound 22, (S)-N2-(1-isopropyl-1H-pyrazol-4-yl)-N4-(1-phenylethyl)-7H-pyrrolo[2,3-d]pyrimidine-2,4-diamine]	0.037 µM	0.056 µM
Cc1c(Nc2nc(N[C@@H](C)c3ccccc3)c3cc[nH]c3n2)cnn1C(C)C [Compound 24, (S)-N2-(1-isopropyl-5-methyl-1H-pyrazol-phenylethyl)-7H-pyrrolo[2,3-d]pyrimidine-2,4-diamine]	0.055 µM	0.063 µM
Cc1c(Nc2nc(N[C@@H](C)C3CCCCC3)c3cc[nH]c3n2)cnn1C(C)C [Compound 25, (S)-N4-(1-cyclohexylethyl)-N2-(1-isopropyl-5-methyl-1H-pyrazol-4-yl)-7H-pyrrolo[2,3-d]pyrimidine-2,4-diamine]	0.042 µM	0.043 µM
C[C@H](Nc1nc(Nc2cnn(C)c2)nc2[nH]ccc12)C1CC1 [Compound 28, (S)-N4-(1-cyclopropylethyl)-N2-(1-methyl-1H-pyrazol-4-yl)-7H-pyrrolo[2,3-d]pyrimidine-2,4-diamine]	0.02 µM	0.03 µM
CCn1cc(Nc2nc(N[C@@H](C)C3CC3)c3cc[nH]c3n2)cn1 [Compound 29]	0.012 µM	0.017 µM
C[C@H](Nc1nc(Nc2cnn(C3CCN(C)CC3)c2)nc2[nH]ccc12)C1CC1 [Compound 31, (S)-N4-(1-cyclopropylethyl)-N2-(1-(1-methylpiperidin-4-yl)-1H-pyrazol-4-yl)-7H-pyrrolo[2,3-d]pyrimidine-2,4-diamine]	0.02 µM	0.023 µM
COCCn1cc(Nc2nc(N[C@@H](C)C3CC3)c3cc[nH]c3n2)cn1 [Compound 32, (S)-N4-(1-cyclopropylethyl)-N2-(1-(2-methoxyethyl)-1H-pyrazol-4-yl)-7H-pyrrolo[2,3-d]pyrimidine-2,4-diamine]	0.011 µM	0.011 µM
COCC(C)n1cc(Nc2nc(N[C@@H](C)C3CC3)c3cc[nH]c3n2)cn1 (stereo partly drawn) [Compound 34, N4-((S)-1-cyclopropylethyl)-N2-(1-(1-methoxypropan-2-yl)-1H-pyrazol-4-yl)-7H-pyrrolo[2,3-d]pyrimidine-2,4-diamine]	0.011 µM	0.015 µM
CC(C)n1cc(Nc2nc(N[C@@H](C)c3ccccn3)c3cc[nH]c3n2)cn1 [Compound 35, (S)-N2-(1-isopropyl-1H-pyrazol-4-yl)-N4-(1-(pyridin-2-yl)ethyl)-7H-pyrrolo[2,3-d]pyrimidine-2,4-diamine]	0.066 µM	0.097 µM
Cc1cc(Nc2nc(N[C@@H](C)C3CC3)c3cc[nH]c3n2)n[nH]1 [Compound 36, (S)-N4-(1-cyclopropylethyl)-N2-(5-methyl-1H-pyrazol-3-yl)-7H-pyrrolo[2,3-d]pyrimidine-2,4-diamine]	0.038 µM	0.044 µM

Results, then the compound that gave them:

IC50 [1]	IC50 [2]	Compound
0.04 µM	0.061 µM	C[C@H](Nc1nc(Nc2cn(C3CCOC3)nn2)nc2[nH]ccc12)C1CC1 (stereo in doubt) [Compound 50, N4-((S)-1-cyclopropylethyl)-N2-(1-((S)-tetrahydrofuran-3-yl)-1H-1,2,3-triazol-4-yl)-7H-pyrrolo[2,3-d]pyrimidine-2,4-diamine]
–	0.058 µM and 0.113 µM and 0.088 µM	COCCn1cc(Nc2nc(N[C@@H](C)C3CC3)c3cc[nH]c3n2)nn1 [Compound 39, (S)-N4-(1-cyclopropylethyl)-N2-(1-(2-methoxyethyl)-1H-1,2,3-triazol-4-yl)-7H-pyrrolo[2,3-d]pyrimidine-2,4-diamine]
0.05 µM	0.065 µM	C[C@H](Nc1nc(Nc2cnn(CCN(C)C)c2)nc2[nH]ccc12)C1CC1 [Compound 41, (S)-N4-(1-cyclopropylethyl)-N2-(1-(2-(dimethylamino)ethyl)-1H-pyrazol-4-yl)-7H-pyrrolo[2,3-d]pyrimidine-2,4-diamine]
0.067 µM	0.078 µM	CC(C)n1cc(Nc2nc(N[C@@H](C)C3CCC3)c3cc[nH]c3n2)cn1 [Compound 42, (S)-N4-(1-cyclobutylethyl)-N2-(1-isopropyl-1H-pyrazol-4-yl)-7H-pyrrolo[2,3-d]pyrimidine-2,4-diamine]
0.012 µM	0.017 µM	CNC(=O)C(C)n1cc(Nc2nc(N[C@@H](C)C3CC3)c3cc[nH]c3n2)c(Cl)n1 (stereo partly drawn) [Compound 46, 2-(3-chloro-4-((4-(((S)-1-cyclopropylethyl)amino)-7H-pyrrolo[2,3-d]pyrimidin-2-yl)amino)-1H-pyrazol-1-yl)-N-methylpropanamide]
0.019 µM	0.044 µM	CC(C)n1cc(Nc2nc(N(C)[C@@H](C)C3CC3)c3cc[nH]c3n2)cn1 [Compound 48, (S)-N4-(1-cyclopropylethyl)-N2-(1-isopropyl-1H-pyrazol-4-yl)-N4-methyl-7H-pyrrolo[2,3-d]pyrimidine-2,4-diamine]
0.027 µM	0.069 µM	COCC(C)n1cc(Nc2nc(N(C)[C@@H](C)C3CC3)c3cc[nH]c3n2)cn1 (stereo partly drawn) [Compound 49, N4-((S)-1-cyclopropylethyl)-N2-(1-(1-methoxypropan-2-yl)-1H-pyrazol-4-yl)-N4-methyl-7H-pyrrolo[2,3-d]pyrimidine-2,4-diamine]
0.066 µM	0.102 µM	C[C@H](Nc1nc(Nc2cn([C@H]3CCOC3)nn2)nc2[nH]ccc12)C1CC1 [Compound 51, N4-((S)-1-cyclopropylethyl)-N2-(1-((S)-tetrahydrofuran-3-yl)-1H-1,2,3-triazol-4-yl)-7H-pyrrolo[2,3-d]pyrimidine-2,4-diamine]
0.021 µM	0.027 µM	CC(O)Cn1cc(Nc2nc(N[C@@H](C)C3CC3)c3cc[nH]c3n2)nn1 (stereo partly drawn) [Compound 54, 1-(4-((4-(((S)-1-cyclopropylethyl)amino)-7H-pyrrolo[2,3-d]pyrimidin-2-yl)amino)-1H-1,2,3-triazol-1-yl)propan-2-ol]
0.009 µM and 0.019 µM	0.013 µM and 0.032 µM	C[C@H](Nc1nc(Nc2cn([C@H](C)CO)nn2)nc2[nH]ccc12)C1CC1 [Compound 55, (R)-2-(4-((4-(((S)-1-cyclopropylethyl)amino)-7H-pyrrolo[2,3-d]pyrimidin-2-yl)amino)-1H-1,2,3-triazol-1-yl)propan-1-ol]
0.073 µM	0.115 µM	C[C@H](Nc1nc(Nc2cn(C3COC3)nn2)nc2[nH]ccc12)C1CC1 [Compound 56, (S)-N4-(1-cyclopropylethyl)-N2-(1-(oxetan-3-yl)-1H-1,2,3-triazol-4-yl)-7H-pyrrolo[2,3-d]pyrimidine-2,4-diamine]
0.072 µM	0.101 µM	C[C@H](Nc1nc(Nc2cn([C@@H](C)CO)nn2)nc2[nH]ccc12)C1CC1 [Compound 58, (S)-2-(4-((4-(((S)-1-cyclopropylethyl)amino)-7H-pyrrolo[2,3-d]pyrimidin-2-yl)amino)-1H-1,2,3-triazol-1-yl)propan-1-ol]
0.051 µM	0.115 µM	CC(C)n1ccc(Nc2nc(N[C@@H](C)C3CC3)c3nc[nH]c3n2)n1 [Compound 59, (S)-N6-(1-cyclopropylethyl)-N2-(1-isopropyl-1H-pyrazol-3-yl)-9H-purine-2,6-diamine]
0.032 µM	0.065 µM	Cc1cc(Nc2nc(N[C@@H](C)C3CC3)c3nc[nH]c3n2)nn1C(C)C [Compound 60, (S)-N6-(1-cyclopropylethyl)-N2-(1-isopropyl-5-methyl-1H-pyrazol-3-yl)-9H-purine-2,6-diamine]
